# “Also recorded” adds a separate entry of the source. Where two headings read alike, the source gives them in different places.
# Tests used:
# [1] = tested on: human ovarian A2780 cancer cells; test: SRB growth inhibition assay, A2780; format: cell-based
# Experimental: The concentrations of the osmium complexes that inhibit 50% of the proliferation of human ovarian A2780 cancer cells were determined by sulforhodamine B test. A2780 cells were seeded in 96-well plate (Falcon) at 5000 cells/well, after the incubation for 48 h, The complexes were solubilised in DMSO (Sigma) to provide 10 mM stocks. The stocks were serially diluted by cell culture media to give concentrations four-fold than the final concentrations for the assay. The dilutions of complexes in cell culture media were added to the 96-well plate with cells in triplicates to achieve the final concentrations. The final DMSO concentration in each well was no more than 1% (v/v). The complexes were removed after 24 h. The cells were washed with Phosphate Buffered Saline once and cell culture media was added 150 μL/well. The cells were recovered for 72 h. The surviving cells were fixed by adding 150 μL/well of 50% (w/v) trichloroacetic acid and incubated for 1 h at 277 K (277 K). The plates were washed with tap water three times and dried under a flow of warm air, 0.4% sulforhodamine B (Sigma) solution 100 μL/well followed by washing with 1% acetic acid five times and dried under a flow of warm air. The dye was dissolved in 10 mM Tris buffer […] The absorbance of each well was obtained by the Multiskan Ascent plate reader (Labsystems) at 540 nm. The absorbance value of SRB in each well is directly proportional to the cell number. Then the absorbance can be plotted against concentration and the IC50 determined by using Origin software.
# The cytotoxicity studies were carried out as described previously above.
# [2] = tested on: A2780/cis ovarian (cisplatin-resistant); test: MTT growth inhibition assay, A2780/cis; format: cell-based, human; details: 96 h
# Experimental: (§1) Tumor cell growth inhibition was assessed using the MTT assay.^13 2×10^3 cells were inoculated into a 96-well plate and incubated overnight at 37° C. in a humidified atmosphere containing 5% CO2. Complexes were solubilised in DMSO as above, and then diluted in complete cell culture medium to give a broad range of concentrations. Cisplatin was included in the screen as a comparator. Medium was removed from each well and replaced with complex or control solutions, and the plates then incubated for a further 96 hours. After 96 h culture medium was removed and 200 μL of 0.5 mg mL^−1 MTT solution (Sigma) in complete medium added to each well. Following further 4 h incubation, the solution was removed from each well and 150 μL of DMSO (Sigma) added to solubilise the formazan crystals resulting from MTT conversion. Absorbance values for the resulting solutions were read at 550 nm on a microplate reader and cell survival calculated as the absorbance of treated cells divided by the control. Results were expressed in terms of IC50 values (i.e. concentration of compound required to kill 50% of cells) and all experiments were performed in triplicate.
# (§2) The following human cancer cell lines were cultured in RPMI 1640 cell culture medium supplemented with 1 mM sodium pyruvate, 2 mM L-glutamine and 10% fetal bovine serum (all from Sigma): A549 non-small cell lung, HCT-116 colon, MCF-7 breast, PC-3 prostate (all from LGC Promochem, Teddington, UK), A2780/cis ovarian (cisplatin-resistant) and RT-112 bladder (both from ECACC, Salisbury, UK).
# [3] = tested on: A549 non-small cell lung; test: MTT growth inhibition assay, A549; format: cell-based, human; details: 96 h
# Experimental: as §1, §2
# [4] = tested on: HCT-116 colon; test: MTT growth inhibition assay, HCT-116; format: cell-based, human; details: 96 h
# Experimental: as §1, §2
# [5] = tested on: MCF-7 breast; test: MTT growth inhibition assay, MCF-7; format: cell-based, human; details: 96 h
# Experimental: as §1, §2
# [6] = tested on: PC-3 prostate; test: MTT growth inhibition assay, PC-3; format: cell-based, human; details: 96 h
# Experimental: as §1, §2
# [7] = tested on: RT-112 bladder; test: MTT growth inhibition assay, RT-112; format: cell-based, human; details: for IC50: MTT, 96 h
# Experimental: as §1, §2
# [8] = tested on: A2780 cells; test: N-acetyl-L-cysteine (NAC) treatment, cell viability by SRB; format: cell-based, human; details: pretreated with 5 mM NAC for 2 h; 1.2-1.8× IC50 (2.5× for cisplatin)
# Experimental: Then NAC and osmium complexes were removed at the same time and washed with PBS once, the cells were incubate for 72 h for recovery. The cell viability was tested by SRB test same as used for IC50 test.
# [9] = Stability and hydrolysis (1H NMR, MS, UV-vis); format: physicochemical; details: 310 K, 24 h, 95% deuterated phosphate buffer (10 mM)/5% MeOD-d4
# [10] = tested on: human A549 lung cancer cells; details: cited from earlier work; for activity towards human A549 lung cancer cells: up to concentrations of 100 μM
# [11] = cited from earlier work
# [12] = tested on: Balb/c immunodeficient nude mice bearing HCT-116 tumours; test: Evaluation of in vivo toxicity in nude mouse HCT-116 xenograft model; details: i.v. day 0, doses from 2 up to 40 mg kg^−1, monitored 15 days
# Experimental: Female Balb/c immunodeficient nude mice (Harlan, Loughborough, UK) aged 6-12 weeks were used. Mice received Harlan 2018 diet (Harlan) and water ad libitum. Mice were kept in cages in an air-conditioned room with regular alternating cycles of light and darkness. All animal procedures were carried out under a project license issued by the UK Home Office and UKCCCR guidelines (Workman P, Twentyman P, Balkwill F et al: United Kingdom Co-ordinating Committee on Cancer Research (UKCCCR) Guidelines for the Welfare of Animals in Experimental Neoplasia (Second Edition). Br J Cancer 77: 1-10, 1998) were followed throughout.
# HCT-116 was used in the study. Tumours were excised from a donor animal, placed in sterile physiological saline containing antibiotics and cut into small fragments of approximately 2 mm^3. Under brief general inhalation anaesthesia, fragments were implanted in the […] abdominal flank of each mouse using a trocar. Once the tumours could accurately be measured using callipers (mean tumour volume of approximately 50 mm^3), treatment commenced. Complexes 3 and 6 were solubilised in 10% DMSO; 5% Tween-80; 85% saline and were administered intravenously to groups of 2 mice on day 0. Animals were weighed frequently and monitored for any deleterious effects over a period of 15 days.
# [13] = pKa of hydroxyl group; format: physicochemical
# [14] = tested on: tubulin; test: Tubulin polymerization assay; format: biochemical; details: 37° C., 60 min; for Inhibition of Tubulin Polimerziation: Osmium Compounds at 10 μM
# Experimental: To follow the anticancer mechanism indicated by COMPARE, We have investigated whether osmium complexes can interacted directly with tubulin.
# A Cytoskeleton tubulin polymerization assay kit (catalog no BK004) was used in the tubulin polymerization study. Briefly, 10 μL of general tubulin buffer (80 mM PIPES, pH 6.9, 2 mM MgCl2, and 0.5 mM EGTA) containing osmium compound, colchicine or taxol was pipetted into the prewarmed 96 well microplate. Tubulin (defrosted to room temperature from −80° C. and then placed on ice before use) was diluted with tubulin polymerization buffer with 1 mM GTP to a final concentration of 4 mg mL^−1. Diluted tubulin (100 μL) was added into the wells containing osmium compound, colchicine or taxol. Diluted tubulin (100 μL) mixed with general tubulin buffer (10 μL) served as control. The absorbance at 340 nm was read immediately with a Tecan microplate reader.
# [15] = tested on: human tumor 60-cell line panel; details: Data from NCI/DTP screening: October 2009, 48 h incubation; cited from earlier work
# [16] = tested on: HCT-116 colon adenocarcinoma s.c. xenograft model; test: In vivo efficacy in HCT-116 s.c. xenograft model; details: 8.0 mg kg^−1
# [17] = SRB, 24 h exposure, 72 h recovery, read-out: IC50 values for azopyridine complexes against A2780 ovarian cancer cells
# [18] = SRB, 24 h exposure, 72 h recovery, read-out: IC50 values for iminopyridine complexes against A2780 ovarian cancer cells
# [19] = SRB, 24 h exposure, 72 h recovery, read-out: IC50 to A2780 cell line
# [20] = A2780 human ovarian cancer cells, read-out: IC50 values against A2780
compound,measurement,setting,value
[(η^6-p-cym)Os(Azpy-NMe2)Cl]PF6 [Complex 12],IC50,[1]; [17],1800 nM
same,IC50,[2],1800 nM
same,IC50,[3],5200 nM
same,IC50,[4],900 nM
same,IC50,[5],1100 nM
same,IC50,[6],6800 nM
same,IC50,[7],2200 nM
same,cell growth restored after NAC pretreatment,[8],only a small effect on restoring growth
same,stability and hydrolysis in aqueous solution,[9],remained stable and did not hydrolyze
same,cytotoxicity against the A549 cancer cell line,[10],did not show significant cytotoxicity
same,activity towards human A549 lung cancer cells,[10],No activity
[(η^6-p-cym)Os(pp)Cl]PF6 [Complex 15],IC50,[1]; [18],26200 nM
[Os(η^6-p-cym)(2-I-Azpy)I]PF6 [FY067],IC50,[1]; [19],2400 nM
"CN(C)c1ccc(N=Nc2ccccn2)cc1.F[P-](F)(F)(F)(F)F.[Cl-].[Os+2].c1ccc(-c2ccccc2)cc1 [Complex 11, [(η^6-bip)Os(azpy-NMe2)Cl]PF6]",IC50,[1]; [17],3900 nM
same,cytotoxicity against the A549 cancer cell line,[10],did not show significant cytotoxicity
same,activity towards human A549 lung cancer cells,[10],No activity
same,"solubility (in water / under test conditions), earlier report",[11]; listed as 11,low solubility
same,"solubility (in water / under test conditions), earlier report",[11]; listed as [(η^6-bip)Os(Azpy-NMe2)Cl]PF6,poor solubility in water
[Os(η^6-bip)(pp-NMe2)Cl]PF6 [FY093],IC50,[1]; [19],440 nM
[Os(η^6-bip)(pp-OH)Cl]PF6 [FY150],IC50,[1]; [19],2400 nM
[(η^6-bip)Os(Azpy-O)I].0.5H2O [3*],IC50,[1]; [20],140 nM
same,IC50,[2],< 300 nM
same,IC50,[3],400 nM
same,IC50,[4],< 300 nM
same,IC50,[5],250 nM
same,IC50,[6],< 300 nM
same,IC50,[7],400 nM
same,"difference in potency to cisplatin, RT-112",[7]; RT-112,3 fold
same,toxicity / deleterious effects,[12],no evident toxicity; also recorded: negligible deleterious effects
same,pKa of the hydroxyl group,[13],less than 7
[Os(η^6-bip)(pp)Cl]PF6 [FY098],IC50,[1]; [19],4600 nM
[Os(η^6-p-cym)(pp-OH)Cl]PF6 [FY119],IC50,[1]; [19],5500 nM
[Os(η^6-bip)(2-Cl-Azpy)I]PF6 [FY078],IC50,[1]; [19],1000 nM
[Os(η^6-p-cym)(1-Cl-Azpy)I]PF6 [FY112],IC50,[1]; [19],9000 nM
[Os(η^6-bip)(1-CF3-4-Cl-Azpy)I]PF6 [FY107],IC50,[1]; [19],5700 nM
same,Inhibition of Tubulin Polimerziation,[14],13.0%
"CN(C)c1ccc(N=Nc2ccccn2)cc1.F[P-](F)(F)(F)(F)F.[I-].[Os+2].c1ccc(-c2ccccc2)cc1 [Complex 5, [(η^6-bip)Os(azpy-NMe2)I]PF6]",IC50,[1]; [20],140 nM
"Cc1ccc(C(C)C)cc1.F[P-](F)(F)(F)(F)F.Oc1ccc(N=Nc2ccccn2)cc1.[I-].[Os+2] [Complex 4, [(η^6-p-cym)Os(Azpy-OH)I]PF6]",IC50,[1]; [17],300 nM
[Os(η^6-p-cym)(OH-Azpy-NO2)Cl]PF6 [FY033],IC50,[1]; [19],300 nM
[(η^6-p-cym)Os(Azpy)Cl]PF6 [Complex 8],IC50,[1]; [20],> 50000 nM
same,IC50,[1]; [17],> 50000 nM
same,stability and hydrolysis in aqueous solution,[9],disappearance of the peaks corresponding to the azopyridine ligand
[(η^6-bip)Os(Azpy)Cl]PF6 [Complex 7],IC50,[1]; [17],13900 nM
"F[P-](F)(F)(F)(F)F.[I-].[Os+2].c1ccc(-c2ccccc2)cc1.c1ccc(N=Nc2ccccn2)cc1 [Complex 1, [(η^6-bip)Os(Azpy)I]PF6]",IC50,[1]; [17],5400 nM
[Os(η^6-bip)(2-Br-Azpy)I]PF6 [FY061],IC50,[1]; [19],590 nM
[(η^6-p-cym)Os(pp-NMe2)I]PF6 [Complex 13],IC50,[1]; [18],400 nM
[(η^6-p-cym)Os(pp-NMe2)Cl]PF6 [Complex 16],IC50,[1]; [18],3500 nM
[Os(η^6-bip)(3-Cl-Azpy)I]PF6 [FY052],IC50,[1]; [19],22000 nM
[(η^6-bip)Os(azpy-OH)Cl]PF6 [Complex 9],IC50,[1]; [17],800 nM
[(η^6-p-cym)Os(Azpy-OH)Cl]PF6 [Complex 10],IC50,[1]; [17],1300 nM
"N.N.[Cl][Pt][Cl] [Cisplatin, reference compound]",IC50,[1]; [17],2000 nM
same,IC50,[1]; [18],2000 nM
same,IC50,[2],4000 nM
same,IC50,[3],4100 nM
same,IC50,[4],2600 nM
same,IC50,[5],3000 nM
same,IC50,[6],21500 nM
same,IC50,[7],1400 nM
same,GI50,[15],10300 nM
same,TGI,[15],50700 nM
same,Maximum % weight loss,[16],8%
same,Median tumour doubling time,[16],6.4 days
same,day of maximum % weight loss,[16],6 days
[Os(η^6-p-cym)(OH-Azpy-NO2)I]PF6 [FY036],IC50,[1]; [19],290 nM
[Os(η^6-p-cym)(abpy))I]PF6 [FY043],IC50,[1]; [19],10800 nM
[Os(η^6-bip)(2-F-Azpy)I]PF6 [FY069],IC50,[1]; [19],630 nM
same,Inhibition of Tubulin Polimerziation,[14],21.0%
same,IC50,[14]; purified tubulin,~20000 nM
same,effect on amount of tubulin polymerized,[14]; purified tubulin,reduced the amount of tubulin polymerized in a dose-dependent manner
[Os(η^6-bip)(1-Cl-azpy)I]PF6 [FY110],IC50,[1]; [19],3700 nM
same,Inhibition of Tubulin Polimerziation,[14],11.4%
[(η^6-bip)Os(pp)I]PF6 [Complex 14],IC50,[1]; [18],18600 nM
[Os(η^6-bip)(pp-NMe2)I]PF6 [FY012],IC50,[1]; [19],140 nM
"Cc1ccc(C(C)C)cc1.F[P-](F)(F)(F)(F)F.[I-].[Os+2].c1ccc(N=Nc2ccccn2)cc1 [Complex 2, [(η^6-p-cym)Os(Azpy)I]PF6]",IC50,[1]; [17],10200 nM
[Os(η^6-bip)(2-I-Azpy)I]PF6 [FY070],IC50,[1]; [19],220 nM
